Structures can show the parent of a compound that is named as a salt.
Tests used:
Type in all cases: in vivo
[1] = tested on: ventricular arrhythmia produced by chloroform; assay: Antiarrhythmic activity: protection from chloroform-induced ventricular arrhythmia in mice (Lawson model); settings: mouse; for Antiarrhythmic activity, ED50 symbol (failed screening dose) / mice protected of 5: 31 mg/kg i.p.; for Antiarrhythmic activity, ED50 symbol (failed screening dose): groups of 5 mice; for ED50: ip, 10 min, i.p., 10 min before chloroform, 95% confidence limits in parentheses, read-out: ED50 (95% C.L.)
Method: The antiarrhythmic activity of the compounds of this invention was determined in the experimental model described by J. W. Lawson (J. Pharmacol. Exper. Therap. 160:22-31, 1968). Test compounds were administered to groups of 5 mice at an intraperitoneal dose of 31 mg/kg. Ten minutes after injection each mouse was placed in a covered 300 ml glass beaker which contained cotton saturated with chloroform. The animal was observed closely and removed from the beaker immediately after respiratory arrest. The heart was quickly exposed by making an incision through the abdomen, diaphragm, thorax and pericardium for visual inspection of ventricular rate and rhythm. Ventricular contractions were counted for 30 seconds and animals with a rate not exceeding 100 beats per 30 seconds were considered protected from the ventricular arrhythmia produced by chloroform. Compounds protecting at least 3 of the 5 mice were subsequently tested at various doses and the results obtained were used to calculate the mean effective doses (ED50) and 95% confidence limits after the method of Litchfield and Wilcoxon (J. Pharmacol. Exper. Therap. 96:99-113, 1949). Table A presents the results obtained in the antiarrhythmic study.

Systolic Blood Pressure = assay: Antihypertensive activity: indirect systolic blood pressure in renal hypertensive rats; settings: rat, 31 mg/kg p.o., * in table = statistically significant change from control
Method: Rats were made hypertensive by applying a figure of eight ligature to one kidney and removing the contralateral kidney two weeks later. At least four weeks after the second operation the animals were subjected to indirect systolic blood pressure measurements with an occluding cuff and pulse sensor system applied to the tail. Pressure measurements were made before and 1,2,4,6 and 8 hours after oral administration of the test compounds at a dose of 31 mg/kg. Each compound was tested in 5 or 10 rats. Statistical significance of differences between control and post treatment values was determined by Wilcoxon's signed rank test (F. Wilcoxon and R. A. Wilcox, Some Rapid Approximate Statistical Procedures, Lederle Laboratories, Pearl River, 1964).

dog heart in situ = assay: Antianginal activity: aortic-coronary sinus difference in oxygen (myocardial oxygen consumption) in anesthetized dogs; settings: 1 mg/kg i.v.; for antianginal activity (conclusion in words): based upon comparison with nitroglycerin, named compounds 'particularly'
Method: Angina pectoris is a clinical condition of hypoxia that results from an imbalance in myocardial oxygen supply and demand. A drug reducing oxygen demand is useful in the treatment of angina pectoris, as has been the case with nitroglycerin and the beta-adrenergic blocking agents like propranolol (J. R. Paratt, Advan. Drug Res. 9:103-134, 1974). Accordingly,the antianginal activity of 2-substituted indoloquinolizines was evaluated by assessing their capacity to reduce oxygen consumption by the dog heart in situ. This method allows measurement of the difference in oxygen content of the arterial and venous blood.
Mongrel dogs were anesthetized with pentobarbital and cannulas inserted in the trachea and in a femoral vein for artificial respiration with room air and for injection of test compounds, respectively. Heparin was administered intravenously to prevent blood clotting. The chest was opened at the sternal midline and an additional cannula introduced in the coronary sinus. Samples of blood were obtained from the coronary sinus cannula and from the thoracic aorta by direct puncture of the vessel. Partial pressure of oxygen in the samples was determined with a blood gas analyzer. Test compounds were injected intravenously at a dose of 1 mg/kg; oxygen measurements were made before administration and at 1, 5, 10, 20, 30, 40, 50 and 60 min after administration. One animal was used per test compound. As the standard of comparison, nitroglycerin was administered to a test animal and measurements were made in a similar manner.
Differences between partial pressure values in arterial and venous blood samples were calculated for each measurement. Since coronary sinus blood is representative of the venous effluent from the heart, these differences reflect the consumption of oxygen by the myocardium. Thus, the decrease in arteriovenous oxygen difference produced by the compounds by this invention indicates a reduction in myocardial oxygen consumption.

Row | SMILES | Antiarrhythmic activity, ED50 symbol (failed screening dose) [1] | Change in Systolic Blood Pressure at 1 hr (Systolic Blood Pressure) [mmHg] | Change in Systolic Blood Pressure at 2 hr (Systolic Blood Pressure) | Change in Systolic Blood Pressure at 4 hr (Systolic Blood Pressure) | Change in Systolic Blood Pressure at 6 hr (Systolic Blood Pressure) | Change in Systolic Blood Pressure at 8 hr (Systolic Blood Pressure) | Arterio-Venous Difference in Oxygen Partial Pressure at 1 min (dog heart in situ) [mmHg] | Arterio-Venous Difference in Oxygen Partial Pressure at 5 min (dog heart in situ) [mmHg] | Arterio-Venous Difference in Oxygen Partial Pressure at 10 min (dog heart in situ) [mmHg] | Arterio-Venous Difference in Oxygen Partial Pressure at 20 min (dog heart in situ) [mmHg] | Arterio-Venous Difference in Oxygen Partial Pressure at 30 min (dog heart in situ) [mmHg] | Arterio-Venous Difference in Oxygen Partial Pressure at 40 min (dog heart in situ) [mmHg] | Arterio-Venous Difference in Oxygen Partial Pressure at 50 min (dog heart in situ) [mmHg] | Arterio-Venous Difference in Oxygen Partial Pressure at 60 min (dog heart in situ) [mmHg] | antianginal activity (conclusion in words) (dog heart in situ) | ED50 [1] [mg/kg] | mice protected of 5 [1]
1 | FC(F)(F)c1cccc(NC2CCN3CCc4c(n(Cc5ccccc5)c5ccccc45)C3C2)c1 (stereo not drawn) [TR3633, 12-benzyl-1,2,3,4,6,7,12,12b-octahydroindolo-2-(3-trifluoromethylanilino)[2,3-a]quinolizine dihydrochloride] | * (Did not protect 3 of 5 mice and thus was not tested further.) | -10 | +2 mmHg | +8 mmHg | +4 mmHg | +13 mmHg | 31 | 35 | 39 | 39 | 36 | 36 | 36 | 38 | antianginal activity is seen | – | –
2 | CC(=O)Nc1ccc(NC2CCN3CCc4c(n(Cc5ccccc5)c5ccccc45)C3C2)cc1.Cl.Cl (stereo not drawn) [TR3635, 2-(4-acetamidoanilino)-12-benzyl-1,2,3,4,6,7,12,12b-octahydroindolo-[2,3-a]quinolizine dihydrochloride] | * (Did not protect 3 of 5 mice and thus was not tested further.) | -23 | -23 mmHg | -27 mmHg | -16 mmHg | -10 mmHg | 24 | 24 | 24 | 23 | 24 | 26 | 25 | 26 | – | – | –
3 | CC(C)NC1CCN2CCc3c(n(Cc4ccccc4)c4ccccc34)C2C1.Cl.Cl.O (stereo not drawn) [TR3687, 12-benzyl-2-isopropylamino-1,2,3,4,6,7,12,12b-octahydroindolo[2,3-a]quinolizine dihydrochloride monohydrate] | – | -2 | +16 mmHg | +18 mmHg | +18 mmHg | +9 mmHg | 15 | 22 | 23 | 20 | 20 | 20 | 23 | 23 | antianginal activity is seen | 19 | at least 3 of 5 mice
4 | Cl.Cl.NC1CCN2CCc3c(n(Cc4ccccc4)c4ccccc34)C2C1.O (stereo not drawn) [TR3698, 2-amino-12-benzyl-1,2,3,4,6,7,12,12b-octahydroindolo [2,3-a]-quinolizine dihydrochloride monohydrate] | – | -4 | -11 mmHg | -3 mmHg | +14 mmHg | +3 mmHg | 27 | 27 | 27 | 28 | 28 | 29 | 28 | 27 | – | 42 | at least 3 of 5 mice
5 | CC(=O)Nc1cccc(NC2CCN3CCc4c(n(Cc5ccccc5)c5ccccc45)C3C2)c1.O=C(O)C(=O)O (stereo not drawn) [TR3716, 2-(3-acetamidoanilino)-12-benzyl-1,2,3,4,6,7,12,12b-octahydroindolo[2,3-a]quinolizine oxalate] | * (Did not protect 3 of 5 mice and thus was not tested further.) | -49 | -42 mmHg | – | -17 mmHg | -6 mmHg | 22 | 27 | 29 | 28 | 27 | 28 | 28 | 28 | – | – | –
6 | NS(=O)(=O)c1ccc(NC2CCN3CCc4c(n(Cc5ccccc5)c5ccccc45)C3C2)cc1 (stereo not drawn) [TR3718, 12-benzyl-1,2,3,4,6,7,12,12b-octahydro-(4-sulfonamidoanilino)-indolo[2,3-a]quinolizine hydrochloride] | * (Did not protect 3 of 5 mice and thus was not tested further.) | -5 | -16 mmHg | -21 mmHg | -5 mmHg | +5 mmHg | 20 | 17 | 17 | 16 | 16 | 16 | 18 | 18 | – | – | –

From patent US4181657A, “2-Aminooctahydroindolo[2,3-a]quinolizines useful in treating cardiovascular disorders” (Miles Laboratories, Inc., priority 1978, dated 1980)
